Test results taken from ChEMBL document CHEMBL3351513, “Norbornane-based nucleoside and nucleotide analogues locked in North conformation” (Bioorg Med Chem, 2015).
Active and inactive are the calls of the source. No cut-off for these calls is given here.

Tests used:
L1210 = assay: Cytostatic activity against mouse L1210 cells after 48 hrs by Coulter counting; conditions: L1210, 48 h
CCRF-CEM = assay: Cytostatic activity against human CEM cells after 72 hrs by Coulter counting
HeLa = assay: Cytostatic activity against human HeLa cells after 72 hrs by Coulter counting
Coxsackievirus B4 = assay: Antiviral activity against Coxsackievirus B4 infected in african green monkey Vero cells assessed as inhibition of virus-induced cytopathicity; format: functional, organism-based; conditions: for EC50: Enterovirus B
[1] = Cytotoxicity against african green monkey Vero cells; format: cell-based; conditions: chlorocebus sabaeus
Felid alphaherpesvirus 1 [2] = assay: Antiviral activity against Feline herpesvirus 1 infected in cat CRFK cells assessed as inhibition of virus induced cytopathicity at 100 uM; format: functional, organism-based
Influenza A virus [3] = assay: Antiviral activity against influenza A virus H1N1 infected in MDCK cells assessed as inhibition of virus-induced cytopathic effect at 100 uM; format: functional, organism-based
[4] = test system: Human immunodeficiency virus 2; assay: Antiviral activity against HIV2 ROD infected in human CEM cells assessed as inhibition of virus-induced syncytium formation at 100 uM by microscopy; format: functional, organism-based; conditions: ISOLATE ROD, CCRF-CEM
[5] = test system: Human immunodeficiency virus 1; assay: Antiviral activity against HIV1 3B infected in human CEM cells assessed as inhibition of virus-induced syncytium formation at 100 uM by microscopy; format: functional, organism-based; conditions: CCRF-CEM
[6] = test system: Human immunodeficiency virus 1; assay: Antiviral activity against HIV1 3B infected in human CEM cells assessed as inhibition of virus-induced syncytium formation by microscopy; conditions: Human immunodeficiency virus 1, 3B, CCRF-CEM
[7] = test system: Human immunodeficiency virus 2; assay: Antiviral activity against HIV2 ROD infected in human CEM cells assessed as inhibition of virus-induced syncytium formation by microscopy; conditions: Human immunodeficiency virus 2, ISOLATE ROD, CCRF-CEM
[8] = Cytotoxicity against human CEM cells infected with HIV1; format: cell-based, CCRF-CEM; conditions: CEM cells infected with HIV-1
Felid alphaherpesvirus 1 [9] = assay: Antiviral activity against Feline herpesvirus 1 infected in cat CRFK cells assessed as inhibition of virus induced cytopathicity; conditions: Felid alphaherpesvirus 1, CRFK
[10] = Cytotoxicity against cat CRFK cells; format: cell-based, Felis catus
Influenza A virus [11] = assay: Antiviral activity against influenza A virus H1N1 infected in MDCK cells assessed as inhibition of virus-induced cytopathic effect
MDCK = assay: Cytotoxicity against MDCK cells; conditions: Canis lupus familiaris
[12] = Cytotoxicity against human CEM cells infected with HIV2; format: cell-based, CCRF-CEM
[13] = Inhibition of human PI4K3alpha expressed in Escherichia coli BL21 after 60 mins by ADP-GloTM Kinase Assay
[14] = Inhibition of human PI4K3beta expressed in Escherichia coli BL21 after 60 mins by ADP-GloTM Kinase Assay

## Nc1nc(NC2CC2)c2ncn([C@@H]3C[C@@]4(CO)CC[C@@H]3C4)c2n1 (relative stereo)
L1210
  IC50: 146 µM
CCRF-CEM
  IC50: 124 µM
HeLa
  IC50: 101 µM

## COC(=O)[C@H](C)NP(=O)(OC[C@]12CC[C@H](C1)[C@H](n1cnc3c(NC4CC4)ncnc31)C2)Oc1ccccc1 (relative stereo)
L1210
  IC50: 129 µM
CCRF-CEM
  IC50: 78 µM
HeLa
  IC50: 136 µM

## CN(C)c1ncnc2c1ncn2[C@@H]1C[C@@]2(CO)CC[C@@H]1C2 (relative stereo)
Coxsackievirus B4
  inhibition: inactive

## OC[C@]12CC[C@H](C1)[C@H](n1cnc3c(Cl)ncnc31)C2 (relative stereo)
Coxsackievirus B4
  EC50: 25 µM
[1]
  CC50: > 359 µM

## OC[C@]12CC[C@H](C1)[C@H](n1cnc3c(=S)[nH]cnc31)C2 (relative stereo)
Coxsackievirus B4
  inhibition: inactive

## OC[C@]12CC[C@H](C1)[C@H](n1cnc3c(NC4CC4)ncnc31)C2 (relative stereo)
Coxsackievirus B4
  inhibition: inactive

## Nc1nc(N)c2ncn([C@@H]3C[C@@]4(CO)CC[C@@H]3C4)c2n1 (relative stereo)
L1210
  IC50: 179 µM
CCRF-CEM
  IC50: 174 µM
HeLa
  IC50: 190 µM

## COC(=O)[C@H](C)NP(=O)(OC[C@]12CC[C@H](C1)[C@H](n1cnc3c(N)ncnc31)C2)Oc1ccccc1 (relative stereo)
Felid alphaherpesvirus 1 [2]
  inhibition: inactive
Influenza A virus [3]
  inhibition: inactive
L1210
  IC50: 160 µM
CCRF-CEM
  IC50: ≥ 200 µM
HeLa
  IC50: > 200 µM
[4]
  inhibition: inactive
[5]
  inhibition: inactive

## Nc1nc(Cl)c2ncn([C@@H]3C[C@@]4(CO)CC[C@@H]3C4)c2n1 (relative stereo)
Coxsackievirus B4
  EC50: 31 µM
[1]
  CC50: > 359 µM
L1210
  IC50: 139 µM
CCRF-CEM
  IC50: 88 µM
HeLa
  IC50: > 340 µM

## Nc1ncnc2c1ncn2[C@@H]1C[C@@]2(CO)CC[C@@H]1C2
Coxsackievirus B4
  inhibition: inactive
[6]
  EC50: 100 µM
[7]
  EC50: 231 µM
[8]
  CC50: > 386 µM
Felid alphaherpesvirus 1 [9]
  EC50: 58 µM
[10]
  CC50: > 386 µM
Influenza A virus [11]
  EC50: 179 µM
MDCK
  EC50: > 386 µg/mL
[12]
  CC50: > 386 µM
L1210
  IC50: 408 µM
CCRF-CEM
  IC50: > 386 µM
HeLa
  IC50: 609 µM
[13]
  IC50: > 100 µM
[14]
  IC50: > 100 µM

## O=c1[nH]cc(F)c(=O)[nH]1 [FLUOROURACIL]
HeLa
  IC50: 2.6 µM
